The experiment concerns the target P2Y1 receptor (Homo sapiens, UniProt P47900). Kind of experiment: intracellular calcium mobilization. The class given is cell-based.

This is an account of results in PMC3140712 (2011).

Structures can show the parent of a compound that is named as a salt.

For orientation: EC50 means the concentration at which the effect is half-maximal.

P2Y1 receptor, sequence (P47900 whole entry): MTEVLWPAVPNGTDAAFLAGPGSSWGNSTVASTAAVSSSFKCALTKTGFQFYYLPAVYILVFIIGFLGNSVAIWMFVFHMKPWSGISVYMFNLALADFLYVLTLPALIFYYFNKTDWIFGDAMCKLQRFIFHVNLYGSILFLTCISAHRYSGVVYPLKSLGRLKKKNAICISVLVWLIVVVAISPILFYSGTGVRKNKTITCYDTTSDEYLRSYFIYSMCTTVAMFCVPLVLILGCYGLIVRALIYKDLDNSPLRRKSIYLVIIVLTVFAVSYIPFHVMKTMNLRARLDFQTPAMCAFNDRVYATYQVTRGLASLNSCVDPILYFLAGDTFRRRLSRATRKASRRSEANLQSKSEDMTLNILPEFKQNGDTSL

With `CSc1nc(N)c2ncn([C@H]3[C@H](O)[C@H](O)[C@]4(COP(=O)(O)OP(=O)(O)O)C[C@H]34)c2n1` [MRS2365, [[(1R,2R,3S,4R,5S)-4-[6-amino-2-(methylthio)-9H-purin-9-yl]-2,3-dihydroxybicyclo[3.1.0]hex-1-yl]methyl] diphosphoric acid mono ester trisodium salt], the EC50 came out at 5.28 ± 1.96 nM.
